Values quoted from earlier work as cited in publication PMC7395068, “The evolution of strategies to minimise the risk of human drug-induced liver injury (DILI) in drug discovery and development” (Archives of Toxicology, 2020).
Counter-ions that a name gives are not always drawn. Like-named read-outs stand apart in the source and are kept apart here.

Tests used:
human hepatocytes = settings: cited from earlier work
[1] = cited from earlier work
[2] = ref Chen 2016; cited from earlier work
[3] = system: primary human hepatocytes, NIH3T3 fibroblasts, BSEP, CYP3A4; settings: In vitro Assay; ref Schadt 2015; cited from earlier work
[4] = system: THLE or HepG2 cells, isolated mitochondria, BSEP; settings: In vitro Assay; ref Aleo 2019; cited from earlier work
[5] = human hepatocyte imaging, ref Xu 2008
[6] = assignment in Xu 2008, ref Xu 2008

Cl[C@H]1[C@H](Cl)[C@@H](Cl)[C@@H](Cl)[C@H](Cl)[C@H]1Cl [1,2,3,4,5,6-hexachlorocyclohexane]
Structural based (HCI) (human hepatocytes): -VE
In vivo DILI ([1]; in vivo): +VE

CS(=O)(=O)OCCCCOS(C)(=O)=O [busulphan]
Structural based (HCI) (human hepatocytes; In vitro Assay, ref Xu 2008): +VE
In vivo DILI ([1]; ref Xu 2008): +VE

C[C@H]1C(=O)O[C@@H]2CCN3CC=C(COC(=O)[C@](C)(O)[C@]1(C)O)[C@H]23 [monocrotaline]
Structural based (HCI), In vitro Assay (human hepatocytes): -VE
In vivo DILI ([1]; in vivo): +VE

CC1(C)S[C@@H]2[C@H](NC(=O)Cc3ccccc3)C(=O)N2[C@H]1C(=O)O [penicillin g]
Structural based (HCI) (human hepatocytes; In vitro Assay, ref Xu 2008): -VE

CC(=O)Nc1nnc(S(N)(=O)=O)s1 [acetazolamide]
Structural based (HCI) (human hepatocytes; In vitro Assay, ref Xu 2008): -VE

CC(C)(C)NC[C@H](O)COc1nsnc1N1CCOCC1 [timolol maleate]
Structural based (HCI), In vitro Assay (human hepatocytes; [5]): -VE
In vivo DILI [1, 6]: +VE

O=c1[nH]c(=O)n([C@H]2C[C@H](O)[C@@H](CO)O2)cc1F [floxuridine]
Structural based (HCI) (human hepatocytes; In vitro Assay, ref Xu 2008): -VE
In vivo DILI ([1]; […]): +VE
In vivo DILI ([1]; ref Xu 2008): +VE

O=c1[nH]c(=O)n([C@H]2C[C@H](O)[C@@H](CO)O2)cc1I [idoxuridine]
Structural based (HCI), In vitro Assay (human hepatocytes; [5]): -VE
In vivo DILI [1, 6]: +VE

OCCN1CCN(CC/C=C2/c3ccccc3Sc3ccc(C(F)(F)F)cc32)CC1 [cis(z)-flupentixol]
Structural based (HCI) (human hepatocytes): -VE
In vivo DILI ([1]; in vivo): -VE

C[C@H]1C[C@H]2[C@@H]3CCC4=CC(=O)C=C[C@]4(C)[C@@]3(F)[C@@H](O)C[C@]2(C)[C@@]1(O)C(=O)CO [betamethasone]
Structural based (HCI) (human hepatocytes; In vitro Assay, ref Xu 2008): -VE
In vivo DILI ([1]; ref Xu 2008): -VE

CN1CCN(CC/C=C2/c3ccccc3Sc3ccc(S(=O)(=O)N(C)C)cc32)CC1 [thiothixene]
Structural based (HCI) (human hepatocytes; In vitro Assay, ref Xu 2008): -VE

COc1cc(NS(C)(=O)=O)ccc1Nc1c2ccccc2nc2ccccc12 [amsacrine]
Structural based (HCI) (human hepatocytes; In vitro Assay, ref Xu 2008): +VE

CCCCNc1ccc(C(=O)OCCN(C)C)cc1 [tetracaine]
Structural based (HCI), In vitro Assay (human hepatocytes; [5]): -VE
In vivo DILI [1, 6]: -VE

CC[N+](C)(C)c1cccc(O)c1 [edrophonium chloride]
Structural based (HCI) (human hepatocytes): -VE

C[C@]12C=CC(=O)C=C1CC[C@@H]1[C@@H]2C(=O)C[C@@]2(C)[C@H]1CC[C@]2(O)C(=O)CO [prednisone]
Structural based (HCI) (human hepatocytes; In vitro Assay, ref Xu 2008): -VE

CCOc1ccccc1OCCN[C@H](C)Cc1ccc(OC)c(S(N)(=O)=O)c1 [tamsulosin]
DILI +VE (5-8), DILI -VE (-4) [2]: +VE
DILI severity category [2]: vLess-DILI-Concern
Cellular toxicity (3T3 cells) [3]: -VE
Combined Assay [3]: -VE
GSH adduct HML [3]: -VE
Hepatocyte cellular toxicity [3]: -VE
MitoTox 3T3 [3]: -VE
TDI CYP3A4 [3]: -VE
hBSEP inhibition [3]: -VE
Partition Hybrid HRM Score [4]: -VE
Ro2 Hybrid HRM Score [4]: -VE
In vivo DILI ([1]; ref Aleo 2019): +VE
In vivo DILI ([1]; ref Schadt 2015): -VE

N=C(N)NCCC[C@H](N)C(=O)O [l-arginine]
Structural based (HCI) (human hepatocytes; In vitro Assay, ref Xu 2008): -VE

CC1(C)[C@@H](OC(=O)CCC(=O)[O-])CC[C@]2(C)[C@H]3C(=O)C=C4[C@@H]5C[C@@](C)(C(=O)[O-])CC[C@]5(C)CC[C@@]4(C)[C@]3(C)CC[C@@H]12.[Na+].[Na+] [carbenoxolone disodium]
Structural based (HCI) (human hepatocytes): -VE
In vivo DILI ([1]; in vivo): -VE

O=C(O)/C=C\C(=O)O [maleic acid]
Structural based (HCI) (human hepatocytes; In vitro Assay, ref Xu 2008): -VE

NC[C@@H]1O[C@H](O[C@H]2[C@@H](O)[C@H](O[C@@H]3[C@@H](O)[C@H](N)C[C@H](N)[C@H]3O[C@H]3O[C@H](CO)[C@@H](O)[C@H](O)[C@H]3N)O[C@@H]2CO)[C@H](N)[C@@H](O)[C@@H]1O [paromomycin]
Structural based (HCI), In vitro Assay (human hepatocytes; [5]): -VE

COc1ccc(OC)c(C(O)C(C)N)c1 (stereo not drawn) [methoxamine]
Structural based (HCI), In vitro Assay (human hepatocytes; [5]): -VE
In vivo DILI [1, 6]: -VE

COc1c(N2CCNC(C)C2)c(F)cc2c(=O)c(C(=O)O)cn(C3CC3)c12 (stereo not drawn) [gatifloxacin]
Structural based (HCI), In vitro Assay (human hepatocytes; [5]): -VE
In vivo DILI [1, 6]: -VE

C[C@H](CCC(=O)O)[C@H]1CC[C@H]2[C@@H]3CC[C@@H]4C[C@H](O)CC[C@]4(C)[C@H]3CC[C@]12C [lithocholic acid]
Structural based (HCI), In vitro Assay (human hepatocytes; [5]): -VE

N[C@H](C(=O)O)[C@@H]1CC(Cl)=NO1 [acivicin]
Structural based (HCI) (human hepatocytes; In vitro Assay, ref Xu 2008): -VE
In vivo DILI ([1]; ref Xu 2008): -VE

NC[C@H]1O[C@H](O[C@H]2[C@H](O)[C@@H](O[C@H]3O[C@H](CO)[C@@H](O)[C@H](N)[C@H]3O)[C@H](N)C[C@@H]2N)[C@H](O)[C@@H](O)[C@@H]1O [kanamycin sulfate]
Structural based (HCI) (human hepatocytes; In vitro Assay, ref Xu 2008): -VE

COc1cccc(OC)c1C(=O)N[C@@H]1C(=O)N2[C@@H]1SC(C)(C)[C@@H]2C(=O)O [methicillin sodium]
Structural based (HCI), In vitro Assay (human hepatocytes; [5]): -VE

Nc1nc(=O)[nH]cc1F [flucytosine]
Structural based (HCI) (human hepatocytes; In vitro Assay, ref Xu 2008): +VE

O.O=C1NC(=O)C(=O)C(=O)N1 [alloxan hydrate]
Structural based (HCI) (human hepatocytes; In vitro Assay, ref Xu 2008): -VE
In vivo DILI ([1]; ref O'Brien 2006): +VE
In vivo DILI ([1]; ref Xu 2008): -VE

COC(=O)Nc1nc2ccc(C(=O)c3ccccc3)cc2[nH]1 [mebendazole]
Structural based (HCI) (human hepatocytes; In vitro Assay, ref Xu 2008): +VE

CC[C@@H](CO)NC(=O)[C@@H]1C=C2c3cccc4[nH]cc(c34)C[C@H]2N(C)C1 [methylergonovine maleate]
Structural based (HCI), In vitro Assay (human hepatocytes; [5]): -VE

COCCCC/C(=N\OCCN)c1ccc(C(F)(F)F)cc1 [fluvoxamine]
Structural based (HCI) (human hepatocytes): -VE

CC(C)N(CCC(C(N)=O)(c1ccccc1)c1ccccn1)C(C)C (stereo not drawn) [disopyramide phosphate]
Structural based (HCI) (human hepatocytes; In vitro Assay, ref Xu 2008): -VE
In vivo DILI ([1]; ref Xu 2008): +VE

CCOc1ccc(NC(C)=O)cc1 [phenacetin]
Structural based (HCI) (human hepatocytes; In vitro Assay, ref Xu 2008): +VE

CNCCCC1c2ccccc2C=Cc2ccccc21 [protriptyline]
DILI +VE (5-8), DILI -VE (-4) [2]: -VE
DILI severity category [2]: vNo-DILI-Concern
Cellular toxicity (3T3 cells) [3]: -VE
Combined Assay [3]: +VE
GSH adduct HML [3]: -VE
Hepatocyte cellular toxicity [3]: -VE
MitoTox 3T3 [3]: +VE
TDI CYP3A4 [3]: -VE
hBSEP inhibition [3]: -VE
Partition Hybrid HRM Score [4]: -VE
Ro2 Hybrid HRM Score [4]: -VE
In vivo DILI ([1]; ref Aleo 2019): -VE
In vivo DILI ([1]; ref Schadt 2015): -VE

Nc1ccc(C(=O)O)cc1 [aminobenzoate potassium]
Structural based (HCI) (human hepatocytes; In vitro Assay, ref Xu 2008): -VE

CCOC(=O)[C@H](CCc1ccccc1)N[C@H]1CCc2ccccc2N(CC(=O)O)C1=O [benazepril]
Structural based (HCI) (human hepatocytes; In vitro Assay, ref Xu 2008): -VE

Nc1ncnc2c1ncn2[C@@H]1O[C@H](CO)[C@@H](O)[C@@H]1O [vidarabine]
Structural based (HCI) (human hepatocytes; In vitro Assay, ref Xu 2008): -VE

C[C@]12CC[C@@H]3c4ccc(O)cc4CC[C@H]3[C@@H]1CC[C@@H]2O[C@@H]1O[C@H](C(=O)O)[C@@H](O)[C@H](O)[C@H]1O [estradiol 17b glucuronide]
Structural based (HCI) (human hepatocytes): -VE
In vivo DILI ([1]; in vivo): +VE

C[C@@H](CO)NC(=O)[C@@H]1C=C2c3cccc4[nH]cc(c34)C[C@H]2N(C)C1 [ergonovine maleate]
Structural based (HCI) (human hepatocytes; In vitro Assay, ref Xu 2008): -VE
In vivo DILI ([1]; ref Xu 2008): -VE

C#C[C@]1(OC(C)=O)CC[C@H]2[C@@H]3CCC4=C[C@@H](OC(C)=O)CC[C@@H]4[C@H]3CC[C@@]21C [ethynodiol diacetate]
Structural based (HCI) (human hepatocytes; In vitro Assay, ref Xu 2008): -VE

O=c1[nH]cnc2c1ncn2[C@H]1CC[C@@H](CO)O1 [didanosine]
Structural based (HCI) (human hepatocytes; In vitro Assay, ref Xu 2008): -VE

CCSCC[C@H](N)C(=O)O [l-ethionine]
Structural based (HCI), In vitro Assay (human hepatocytes; [5]): -VE
In vivo DILI [1, 6]: +VE

CCCOc1ccc2[nH]c(NC(=O)OC)nc2c1 [oxybendazole]
Structural based (HCI), In vitro Assay (human hepatocytes; [5]): -VE
In vivo DILI [1, 6]: +VE

NCCC(O)(P(=O)(O)O)P(=O)(O)O [pamidronate]
Structural based (HCI) (human hepatocytes; In vitro Assay, ref Xu 2008): -VE

CC[N+](CC)(CC)CCOc1cccc(OCC[N+](CC)(CC)CC)c1OCC[N+](CC)(CC)CC [gallamine triethiodide]
Structural based (HCI), In vitro Assay (human hepatocytes; [5]): -VE

Nc1ncnc2c1ncn2[C@@H]1O[C@H](CO)[C@@H](O)[C@H]1O [adenosine]
Structural based (HCI) (human hepatocytes; In vitro Assay, ref Xu 2008): -VE

CC(NC(C)(C)C)C(=O)c1cccc(Cl)c1 (stereo not drawn) [bupropion]
Structural based (HCI) (human hepatocytes; In vitro Assay, ref Xu 2008): -VE

Nc1nc2ncc(CNc3ccc(C(=O)N[C@@H](CCC(=O)O)C(=O)O)cc3)nc2c(=O)[nH]1 [folate]
Structural based (HCI) (human hepatocytes; In vitro Assay, ref Xu 2008): -VE

CC(C)(CO)[C@@H](O)C(=O)NCCC(=O)O [calcium pantothenate]
Structural based (HCI) (human hepatocytes; In vitro Assay, ref Xu 2008): -VE

C#C[C@]1(O)CC[C@H]2[C@@H]3CCC4=Cc5oncc5C[C@]4(C)[C@H]3CC[C@@]21C [danazol]
Structural based (HCI) (human hepatocytes): -VE

CCn1cc(C(=O)O)c(=O)c2cc(F)c(N3CCNC(C)C3)c(F)c21 (stereo not drawn) [lomefloxacin]
Structural based (HCI) (human hepatocytes; In vitro Assay, ref Xu 2008): -VE
